# Assay results published in US6319898A, “Method for inhibiting eukaryotic protein kinases” (Terragen Diversity, Inc., priority 1998, dated 2001).
# Residues, ends and D or L forms follow the SMILES beside them.
# Key:
# [1] = tested on: Protein Kinase C purified from rat brain; assay: Protein Kinase C colorimetric assay (Pierce), absorbance at 570 nm; type: biochemical; details: for absorbance read at 570 nm: 10 ng PKC + 10 ug, 30 min at 30° C, control reaction 0.228 (srf), 0.203 (polymyxin B)
# Procedure: Protein Kinase C purified from rat brain was obtained from Upstate Biotechnology. The activity of the enzyme was assayed in a colorimetric assay developed by Pierce. Reaction mixtures were prepared to contain 5 ul each of the 5×reaction buffer, the dye labeled glycogen synthase synthetic peptide substrate reconstituted to 1.77 mM and the 5× activator solution of phosphatidyl-L-serine, all supplied by Pierce in a PKC assay kit. The activator solution was sonicated for 30 sec. on ice prior to use. 1 ul of the kinase (equivalent to 10 ng of enzyme with a specific activity of 12.1 units/mg) was added to 10 ul of a solution containing the compound to be tested for inhibitory activity and allowed to stand at room temperature for 10 minutes then transferred to the reaction tube containing the substrate and incubated 30 min. at 30° C. After incubation 20 ul of each sample was applied to the centre of the affinity membrane in the separation units supplied with the assay kit. These membranes specifically bind the phosphorylated dye labeled substrate while non-phosphorylated peptide will pass through when spun at low speeds. After washing the membranes the phosphorylated peptide was eluted by spinning with the elution buffer and absorbance read at 570 nm in a Molecular Devices V-max plate reader.
# [2] = tested on: S. aureus; assay: Growth inhibition of S. aureus; type: cell-based; details: surfactin in these concentrations (1 to 10 ug on the disc)
# Description: (§1) Eventually the inhibition is overcome and the culture sporulates.
# [3] = target: T1, Human c-Src (p60^c-src) (Homo sapiens, UniProt P12931); assay: c-Src tyrosine kinase ELISA based assay (Pierce), absorbance at 450 nm; type: biochemical
# T1 construct: purchased Upstate Biotechnology
# T1 sequence (P12931 whole entry): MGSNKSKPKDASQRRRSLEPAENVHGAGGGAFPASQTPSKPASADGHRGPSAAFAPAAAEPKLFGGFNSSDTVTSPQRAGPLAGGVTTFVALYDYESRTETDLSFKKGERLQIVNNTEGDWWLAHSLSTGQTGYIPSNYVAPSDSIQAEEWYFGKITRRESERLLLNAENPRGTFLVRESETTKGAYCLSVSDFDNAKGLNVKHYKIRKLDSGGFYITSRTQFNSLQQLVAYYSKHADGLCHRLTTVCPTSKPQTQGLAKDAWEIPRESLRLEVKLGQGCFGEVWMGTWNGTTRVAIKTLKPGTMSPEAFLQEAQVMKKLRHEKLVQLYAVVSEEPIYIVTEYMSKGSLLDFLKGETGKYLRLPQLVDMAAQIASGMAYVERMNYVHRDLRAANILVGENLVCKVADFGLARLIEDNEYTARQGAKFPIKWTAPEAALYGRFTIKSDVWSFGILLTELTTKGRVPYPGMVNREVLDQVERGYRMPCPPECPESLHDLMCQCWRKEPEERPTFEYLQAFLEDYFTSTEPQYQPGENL
# Procedure: Human c-Src (p60^c-src) was obtained from Upstate Biotechnology. The activity of the enzyme was assayed in an ELISA based assay developed by Pierce. Following their protocol, 500 ng of a biotinylated peptide substrate in distilled water (Pierce biotinylated peptide substrate #2, sequence Biotin-EGPWLEEEEEAYGWMDF) (SEQ ID NO:2) was added to a NeutrAvidin™ coated well, incubated at 37° C. for 30 minutes to allow binding to the well then washed with Tris-buffered saline (TBS, 25 mM Tris, 0.15 M NaCl, pH 7.6). For each reaction, a reaction buffer mixture was prepared to contain 10 ul of src assay buffer (100 mM Tris-HCl, pH 7.2, 25 mM MnCl2, 2.0 mM EGTA, 0.25 mM Na3 VO4, 125 mM Mg Acetate) 20 ul of ATP/MgCl2 buffer (5 mM ATP, 50 MM MgCl2 in TBS) and 1 ul of protease inhibitor mix (PMSF and pepstatin, final concentrations in Rx: 0.5 mM and 1.5 uM). The src enzyme is supplied at a concentration of 3 units per microliter and dilutions of the kinase were prepared in 1% bovine serum albumin (BSA) in TBS typically to final concentrations of 0.2 or 0.4 units in 10 ul. 10 ul of a solution of a compound to be tested for inhibitory activity was added to the reaction buffer mixture and allowed to stand 10-15 min. at room temperature, then 10 ul of the diluted kinase enzyme was added and the mixture was allowed to stand 10 min. at room temperature before addition to the substrate coated well. The plate was incubated at 30° C. for varying periods of time then the contents were washed out with repeated rinsings with TBS. A mouse monoclonal anti-phosphotyrosine antibody (PY20) conjugated to horseradish peroxidase (Pierce) was diluted 1:2000 in 1% BSA diluent from 1 mg/ml and 75 ul of this dilution was added to each well, incubated 1 hour at 37° C. then washed out with repeated rinsings with TBS.
# 100 ul of horseradish peroxidase substrate solution (3,3',5,5' tetramethylbenzidine and H2 O2, Pierce TMB-ELISA) was added to each well and after 10 min. the reaction was stopped with the addition of 100 ul of 1 N H2 SO4. Absorbance was read at 450 nm in a Molecular Devices V-max plate reader.
# Examples of inhibition detected using this assay: (Values reported are the absorbance readings after subtraction of a blank well containing no enzyme.)
# [4] = tested on: E. coli; assay: Growth inhibition of E. coli; type: cell-based; details: surfactin in these concentrations (1 to 10 ug on the disc)
# Description: as §1
# [5] = tested on: Streptomyces 85E; assay: Inhibition of sporulation of Streptomyces 85E, filter paper disc on seeded plate; type: cell-based, Streptomyces WEC478-85E; details: surfactin in these concentrations (1 to 10 ug on the disc)
# Procedure: In the test assay, material to be tested was applied to a filter paper disk and then placed on a plate which has been freshly seeded with the strain […] test organism. The test organism is then allowed to grow in the presence of the filter paper disk for a period of 24 to 36 hours, after which the organism is evaluated for altered development in the zone around the disk. An observation of an inhibition of the formation of aerial mycelia and spores, without inhibition of the growth of vegetative mycelia is particularly indicative of the presence of an inhibitor of post-translational phosphorylation. Samples of surfactin prepared as described from Bacillus 60A as well as surfactin from Bacillus subtilis with the same molecular weight (1036) obtained from Sigma were tested for their ability to inhibit sporulation of Streptomyces […].
Compound,absorbance read at 570 nm [1],inhibition of Protein Kinase C ([1]; 380 uM in the reaction),inhibition of growth of S. aureus [2],inhibition of the activity of the tyrosine kinase ([3]; 100 uM in the reaction),inhibition of the activity of the tyrosine kinase ([3]; 200 uM in the reaction (10 ug)),"absorbance reading after subtraction of a blank well containing no enzyme ([3]; 0.05 unit c-Src + 10 ug, 30 min at 30° C, control reaction 0.315)","absorbance reading after subtraction of a blank well containing no enzyme ([3]; 0.1 unit c-Src + 10 ug, 30 min at 30° C, control reaction 0.391)","absorbance reading after subtraction of a blank well containing no enzyme ([3]; 0.2 unit c-Src + 5 ug, 5 min at 30° C, control 0.220)","absorbance reading after subtraction of a blank well containing no enzyme ([3]; 0.2 unit c-Src + 10 ug, 5 min at 30° C, control 0.220)","absorbance reading after subtraction of a blank well containing no enzyme ([3]; 0.2 unit c-Src + 10 ug, 30 min at 30° C, control reaction 0.396)","absorbance reading after subtraction of a blank well containing no enzyme ([3]; 0.4 unit c-Src + 10 ug, 30 min at 30° C, control reaction 0.517)",potency against the tyrosine kinase c-Src compared with the serine-threonine kinase PKC ([3]; conclusion from the c-Src and PKC assays),inhibition of growth of E. coli [4],inhibition of growth of the vegetative mycelia [5],persistence of the inhibition of aerial mycelia and spore formation after unaffected portions of the culture have sporulated [5] [days]
Polymyxin B [reference compound],0.035,,,,,,,,,,,,,,
"CC(C)CCCCCCCCC[C@@H]1CC(=O)N[C@@H](CCC(=O)O)C(=O)N[C@@H](CC(C)C)C(=O)N[C@H](CC(C)C)C(=O)N[C@@H](C(C)C)C(=O)N[C@@H](CC(=O)O)C(=O)N[C@H](CC(C)C)C(=O)N[C@@H](CC(C)C)C(=O)O1 [surfactin] (HELM PEPTIDE1{E.L.[dL].V.D.[dL].L}|CHEM1{[CC(C)CCCCCCCCC[C@H](CC(=O)[*:1])O[*:2]]}$PEPTIDE1,CHEM1,1:R1-1:R1|PEPTIDE1,CHEM1,7:R2-1:R2$$$V2.0)",0.181,only minimally inhibitory,does not inhibit growth,has inhibited the activity of the tyrosine kinase tested,has inhibited the activity of the tyrosine kinase tested,0.050,0.093,0.185,0.087,0.191,0.311,more potent inhibitors of the tyrosine kinase tested than this serine-threonine kinase,does not inhibit growth,does not inhibit growth of the vegetative mycelia,3 to 4
